# Test results published in patent publication US20080071005A1, “Environment-Friendly Pollution-Proof Agent” (priority 2004, published 2008).
# Read-outs that look alike come from different tables or passages of the source.
# Experiments:
# [1] = tested on: spores of Enteromorpha prolifera and Ulva pertusa; assay: prevention of the attachment of fouling algae (summary)
# Experimental: The effect of the extracts on the prevention of the attachment of fouling algae was tested using the spores of Enteromorpha prolifera and Ulva pertusa, which are typical fouling algae.
# mice = assay: safety test, 10 mg/kg to mice, 7 days observation; assay type: in vivo; settings: 10 mg/kg in DMSO/water, 10 mice per group, observed for 7 days
# [2] = safety test, oral and transdermal toxicity in rabbits; settings: rabbit, in vivo
# Enteromorpha spores = assay: inhibitory activity test against the mobility of Enteromorpha spores; assay type: cell-based; settings: Brassica extracts and fractions, comparison within the set
# Source text: In order to investigate inhibitory substances against the mobility of Enteromorpha spores from extracts of Citrus sp., organic solvent fractions were made.
# In order to investigate inhibitory substances against the mobility of Enteromorpha spores from extracts of brassica, organic solvent fractions were made.
# Aspergillus niger = assay: minimum inhibitory concentration, two-fold serial dilution in nutrient broth; assay type: cell-based; settings: 30° C., 48 hours
# Source text: (§1) A liquid medium obtained by diluting PAGS by two-fold serial dilution was placed on a 96-multiwell plate and inoculated with 10^4 cfu/ml of microorganisms. […] The liquid medium used in the test was a nutrient broth (Difco).
# Staphylococcus aureus = assay: as above; assay type: cell-based; settings: 30° C., 48 hours
# Source text: as §1
Compound,antifouling activity [1],death of the mice (mice),also measured
CC(C)=CCC/C(C)=C/C=O,excellent antifouling activity,,
"CCCCCCCCO (single isomer, unassigned) [1-octanol]",excellent antifouling activity,no death,
"C=CCN=C=S (single isomer, unassigned) [allyl isothiocyanate]",excellent antifouling activity,no death,
CCCCCCCCCCCCCCCCCCCC(=O)O [arachadic acid],excellent antifouling activity,no death,
C=CC(=C)CCC=C(C)C [beta-myrcene],excellent antifouling activity,no death,
CC/C=C\CCOC(C)=O [cis-3-hexenyl acetate],excellent antifouling activity,,"solubility in organic solvent (organic solvent): insoluble in organic solvent; solubility in water (water): insoluble in water; LD50 ([2]; oral, read-out: LD50 (oral)): > 5000 mg/kg; LD50 ([2]; topical or ocular, transdermal, read-out: LD50 (transdermal)): > 5000 mg/kg; inhibitory activity against the mobility of Enteromorpha spores, in words (Enteromorpha spores): most excellent inhibitory effect"
CCCCCCC(=O)OCC [ethyl heptanoate],excellent antifouling activity,no death,
C=CCc1ccc(O)c(OC)c1 [eugenol],excellent antifouling activity,no death,
methyl caporate,excellent antifouling activity,no death,MIC Aspergillus niger 1:0 (Aspergillus niger; ratio 1:0): 10; MIC Aspergillus niger 3:1 (Aspergillus niger; ratio 3:1): 6; MIC Staphylococcus aureus 1:0 (Staphylococcus aureus; ratio 1:0): 4; MIC Staphylococcus aureus 3:1 (Staphylococcus aureus; ratio 3:1): 5
